Patent US20150105252A1, “SUBSTITUTED PYRAZOLES AS HERBICIDES” (E I DU PONT DE NEMOURS AND COMPANY, priority 2013, published 2015)

Columns and labels:
corn [1] = assay: Test A postemergence; type: in vivo, Zea mays
Method in brief: (§1)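 Injury readout: eye-scored versus untreated controls, 0 to 100. Exposure period: ~10 days, greenhouse. Application: soil-directed spray over sown seed (pre) or spray on seedlings 2–10 cm tall with one or two leaves (post), compound carried in non-phytotoxic solvent including surfactant.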

velvetleaf [2] = assay: Test A postemergence; type: in vivo, Abutilon theophrasti
Method in brief: as §1

galium [3] = assay: Test C postemergence; type: in vivo, Galium aparine; settings: for Plant response rating (scale of 0 to 100 where 0 is no effect and 100 is complete control), Galium: Postemergence, 31 g ai/ha, visually evaluated after 13 to 15 days; for Galium plant response rating / Plant response rating, Galium: postemergence; for Galium plant response rating: 62 g ai/ha, scale 0 to 100
Method in brief: (§2)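 Scores of 0 (no effect) to 100 (complete control) were assigned by eye after 13–15 days, comparing treated pots with controls. Soil-applied (preemergence) treatments went onto seeds in loam and sand; foliar (postemergence) treatments onto 1- to 4-leaf plants in peat medium.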

foxtail, giant [4] = assay: Test A postemergence; type: in vivo, Setaria faberii
Method in brief: as §1

foxtail, giant [5] = assay: Test C preemergence; type: in vivo, Setaria faberii; settings: preemergence; for Plant response rating, Foxtail, Giant: 125 g ai/ha, scale 0 to 100, 0 = no effect, 100 = complete control
Method in brief: as §2

morningglory = assay: Test C postemergence; type: in vivo, Ipomoea coccinea; settings: for Plant response rating (scale of 0 to 100 where 0 is no effect and 100 is complete control), Morningglory: Postemergence, 31 g ai/ha, visually evaluated after 13 to 15 days; for Morningglory plant response rating / Plant response rating, Morningglory: postemergence; for Morningglory plant response rating: 62 g ai/ha, scale 0 to 100
Method in brief: as §2

galium [6] = assay: Test C preemergence; type: in vivo, Galium aparine; settings: preemergence; for Plant response rating, Galium: 125 g ai/ha, scale 0 to 100, 0 = no effect, 100 = complete control
Method in brief: as §2

corn [7] = assay: Test C preemergence; type: in vivo, Zea mays; settings: preemergence; for Plant response rating, Corn: 125 g ai/ha, scale 0 to 100, 0 = no effect, 100 = complete control
Method in brief: as §2

velvetleaf [8] = assay: Test C postemergence; type: in vivo, Abutilon theophrasti; settings: postemergence; for Plant response rating, Velvetleaf: 250 g ai/ha, scale 0 to 100 (0 no effect, 100 complete control); for Velvetleaf plant response rating: scale 0 to 100
Method in brief: as §2

wheat [9] = assay: Test A postemergence; type: in vivo, Triticum aestivum
Method in brief: as §1

wheat [10] = assay: Test C postemergence; type: in vivo, Triticum aestivum; settings: postemergence; for Plant response rating, Wheat: 250 g ai/ha, scale 0 to 100 (0 no effect, 100 complete control); for Wheat plant response rating: scale 0 to 100
Method in brief: as §2

soybean = assay: Test C preemergence; type: in vivo, Glycine max; settings: preemergence; for Plant response rating, Soybean: 125 g ai/ha, scale 0 to 100, 0 = no effect, 100 = complete control
Method in brief: as §2

barnyardgrass = assay: Test C postemergence; type: in vivo, Echinochloa crus-galli; settings: for Plant response rating (scale of 0 to 100 where 0 is no effect and 100 is complete control), Barnyardgrass: Postemergence, 31 g ai/ha, visually evaluated after 13 to 15 days; for Barnyardgrass plant response rating / Plant response rating, Barnyardgrass: postemergence; for Barnyardgrass plant response rating: 62 g ai/ha, scale 0 to 100
Method in brief: as §2

foxtail, giant [11] = assay: Test C postemergence; type: in vivo, Setaria faberii; settings: for Plant response rating (scale of 0 to 100 where 0 is no effect and 100 is complete control), Foxtail, Giant: Postemergence, 31 g ai/ha, visually evaluated after 13 to 15 days; for Foxtail, Giant plant response rating / Plant response rating, Foxtail, Giant: postemergence; for Foxtail, Giant plant response rating: 62 g ai/ha, scale 0 to 100
Method in brief: as §2

kochia = assay: Test C postemergence; type: in vivo, Kochia scoparia; settings: for Plant response rating (scale of 0 to 100 where 0 is no effect and 100 is complete control), Kochia: Postemergence, 31 g ai/ha, visually evaluated after 13 to 15 days; for Kochia plant response rating / Plant response rating, Kochia: postemergence; for Kochia plant response rating: 62 g ai/ha, scale 0 to 100
Method in brief: as §2

waterhemp = assay: Test C preemergence; type: in vivo, Amaranthus rudis; settings: preemergence; for Plant response rating, Waterhemp: 125 g ai/ha, scale 0 to 100, 0 = no effect, 100 = complete control
Method in brief: as §2

[12] = Postemergence, 500 g ai/ha, 0 to 100 scale (0 no effect, 100 complete control)
[13] = postemergence, 125 g ai/ha, about 10 days, visual rating on 0 to 100 scale (0 no effect, 100 complete control)
[14] = 250 g ai/ha, scale 0 to 100 (0 no effect, 100 complete control)
[15] = 125 g ai/ha, scale 0 to 100, 0 no effect, 100 complete control
[16] = 31 g ai/ha, visual rating, scale 0 to 100 (0 no effect, 100 complete control), 13 to 15 days
[17] = 62 g ai/ha, scale 0 to 100 (0 no effect, 100 complete control), 13 to 15 days
[18] = 250 g ai/ha, scale 0 to 100, 0 is no effect, 100 is complete control
[19] = Postemergence, 125 g ai/ha, 0 to 100 scale, 0 no effect, 100 complete control

CCCNC(=O)c1cc(CCF)n(Cc2ccnc(C(F)(F)F)c2)n1 [Compound 177]
Corn plant response rating (corn [1]; [12]): 100
Corn plant response rating (corn [1]; [13]): 90
Velvetleaf plant response rating (velvetleaf [2]; [12]): 100
Velvetleaf plant response rating (velvetleaf [2]; [13]): 40
Plant response rating (scale of 0 to 100 where 0 is no effect and 100 is complete control), Galium (galium [3]): 50
Galium plant response rating (galium [3]): 50
Plant response rating, Galium (galium [3]; [14]): 90
Plant response rating, Galium (galium [3]; [15]): 80
Foxtail, Giant plant response rating (foxtail, giant [4]; [12]): 100
Foxtail, Giant plant response rating (foxtail, giant [4]; [13]): 100
Foxtail, Giant plant response rating (foxtail, giant [5]; [16]): 85
Foxtail, Giant plant response rating (foxtail, giant [5]; [17]): 98
Plant response rating, Foxtail, Giant (foxtail, giant [5]; 13 to 15 days): 100
Foxtail, Giant plant response rating (foxtail, giant [5]; [18]): 100
Plant response rating (scale of 0 to 100 where 0 is no effect and 100 is complete control), Morningglory (morningglory): 60
Morningglory plant response rating (morningglory): 40
Plant response rating, Morningglory (morningglory; [14]): 80
Plant response rating, Morningglory (morningglory; [15]): 85
Galium plant response rating (galium [6]; [16]): 100
Galium plant response rating (galium [6]; [17]): 100
Plant response rating, Galium (galium [6]; 13 to 15 days): 100
Galium plant response rating (galium [6]; [18]): 100
Corn plant response rating (corn [7]; [16]): 5
Corn plant response rating (corn [7]; [17]): 40
Plant response rating, Corn (corn [7]; 13 to 15 days): 90
Corn plant response rating (corn [7]; [18]): 98
Plant response rating, Velvetleaf (velvetleaf [8]): 60
Velvetleaf plant response rating (velvetleaf [8]): 45
Wheat plant response rating (wheat [9]; [12]): 100
Wheat plant response rating (wheat [9]; [13]): 50
Plant response rating, Wheat (wheat [10]): 20
Wheat plant response rating (wheat [10]): 15
Soybean plant response rating (soybean; [16]): 40
Soybean plant response rating (soybean; [17]): 70
Plant response rating, Soybean (soybean; 13 to 15 days): 95
Soybean plant response rating (soybean; [18]): 98
Plant response rating (scale of 0 to 100 where 0 is no effect and 100 is complete control), Barnyardgrass (barnyardgrass): 5
Barnyardgrass plant response rating (barnyardgrass): 5
Plant response rating, Barnyardgrass (barnyardgrass; [14]): 20
Plant response rating, Barnyardgrass (barnyardgrass; [15]): 10
Plant response rating (scale of 0 to 100 where 0 is no effect and 100 is complete control), Foxtail, Giant (foxtail, giant [11]): 5
Foxtail, Giant plant response rating (foxtail, giant [11]): 10
Plant response rating, Foxtail, Giant (foxtail, giant [11]; [14]): 45
Plant response rating, Foxtail, Giant (foxtail, giant [11]; [15]): 30
Plant response rating (scale of 0 to 100 where 0 is no effect and 100 is complete control), Kochia (kochia): 60
Kochia plant response rating (kochia): 85
Plant response rating, Kochia (kochia; [14]): 90
Plant response rating, Kochia (kochia; [15]): 90
Waterhemp plant response rating (waterhemp; [16]): 98
Waterhemp plant response rating (waterhemp; [17]): 98
Plant response rating, Waterhemp (waterhemp; 13 to 15 days): 98
Waterhemp plant response rating (waterhemp; [18]): 100

CCCc1cc(C(=O)NC(C)C)nn1Cc1ccnc(C(F)(F)F)c1 [Compound 186]
Corn plant response rating (corn [1]; [12]): 100
Corn plant response rating (corn [1]; [13]): 100
Velvetleaf plant response rating (velvetleaf [2]; [19]): 20
Velvetleaf plant response rating (velvetleaf [2]; [12]): 100
Plant response rating (scale of 0 to 100 where 0 is no effect and 100 is complete control), Galium (galium [3]): 70
Galium plant response rating (galium [3]): 80
Plant response rating, Galium (galium [3]; [14]): 100
Plant response rating, Galium (galium [3]; [15]): 75
Foxtail, Giant plant response rating (foxtail, giant [4]; [12]): 90
Foxtail, Giant plant response rating (foxtail, giant [4]; [13]): 90
Foxtail, Giant plant response rating (foxtail, giant [5]; [16]): 100
Foxtail, Giant plant response rating (foxtail, giant [5]; [17]): 100
Plant response rating, Foxtail, Giant (foxtail, giant [5]; 13 to 15 days): 100
Foxtail, Giant plant response rating (foxtail, giant [5]; [18]): 100
Plant response rating (scale of 0 to 100 where 0 is no effect and 100 is complete control), Morningglory (morningglory): 85
Morningglory plant response rating (morningglory): 85
Plant response rating, Morningglory (morningglory; [14]): 75
Plant response rating, Morningglory (morningglory; [15]): 75
Galium plant response rating (galium [6]; [16]): 50
Galium plant response rating (galium [6]; [17]): 100
Plant response rating, Galium (galium [6]; 13 to 15 days): 100
Galium plant response rating (galium [6]; [18]): 95
Corn plant response rating (corn [7]; [16]): 55
Corn plant response rating (corn [7]; [17]): 85
Plant response rating, Corn (corn [7]; 13 to 15 days): 95
Corn plant response rating (corn [7]; [18]): 98
Plant response rating, Velvetleaf (velvetleaf [8]): 80
Velvetleaf plant response rating (velvetleaf [8]): 55
Wheat plant response rating (wheat [9]; [19]): 0
Wheat plant response rating (wheat [9]; [12]): 90
Plant response rating, Wheat (wheat [10]): 20
Wheat plant response rating (wheat [10]): 15
Soybean plant response rating (soybean; [16]): 85
Soybean plant response rating (soybean; [17]): 65
Plant response rating, Soybean (soybean; 13 to 15 days): 98
Soybean plant response rating (soybean; [18]): 98
Plant response rating (scale of 0 to 100 where 0 is no effect and 100 is complete control), Barnyardgrass (barnyardgrass): 5
Barnyardgrass plant response rating (barnyardgrass): 10
Plant response rating, Barnyardgrass (barnyardgrass; [14]): 55
Plant response rating, Barnyardgrass (barnyardgrass; [15]): 10
Plant response rating (scale of 0 to 100 where 0 is no effect and 100 is complete control), Foxtail, Giant (foxtail, giant [11]): 5
Foxtail, Giant plant response rating (foxtail, giant [11]): 30
Plant response rating, Foxtail, Giant (foxtail, giant [11]; [14]): 75
Plant response rating, Foxtail, Giant (foxtail, giant [11]; [15]): 60
Plant response rating (scale of 0 to 100 where 0 is no effect and 100 is complete control), Kochia (kochia): 80
Kochia plant response rating (kochia): 85
Plant response rating, Kochia (kochia; [14]): 95
Plant response rating, Kochia (kochia; [15]): 90
Waterhemp plant response rating (waterhemp; [16]): 100
Waterhemp plant response rating (waterhemp; [17]): 100
Plant response rating, Waterhemp (waterhemp; 13 to 15 days): 100
Waterhemp plant response rating (waterhemp; [18]): 100
